What was measured:
mice = assay: In vivo delivery of FLuc-mRNA lipid nanoparticles in mice, in vivo imaging (IVIS); settings: for IVIS: Fluc-mRNA
Summary of the method: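 Mice (n=3) received about 75 μL FLuc-mRNA LNP per mouse intramuscularly (rectus femoris), intravenously (tail vein), intraperitoneally or subcutaneously (back). After injection, D-luciferin (200 μL, 15 mg/mL) was given i.p. 10-15 min before IVIS imaging.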

[1] = Particle size and PDI of nucleic acid lipid nanoparticle preparations by dynamic light scattering; type: physicochemical
Summary of the method: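 LNP solution (about 0.04 mg/mL mRNA before dilution) was diluted in ultrapure water and mixed by gentle pipetting. Particle size and PDI were then measured by dynamic light scattering.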

[2] = IM, DMG-PEG2000:DSPC:Chol:compound 1.40:11.15:38.95:48.50, N/P 20
[3] = IV, body, DMG-PEG2000:DSPC:Chol:compound 1.40:11.15:38.95:48.50, N/P 20
[4] = IV, liver, DMG-PEG2000:DSPC:Chol:compound 1.40:11.15:38.95:48.50, N/P 20
[5] = IV, lung, DMG-PEG2000:DSPC:Chol:compound 1.40:11.15:38.95:48.50, N/P 20
[6] = IV, spleen, DMG-PEG2000:DSPC:Chol:compound 1.40:11.15:38.95:48.50, N/P 20
[7] = DMG-PEG2000:DSPC:Chol:compound 1.40:11.15:38.95:48.50, N/P 20
[8] = IV, organ not given, DMG-PEG2000:DSPC:Chol:compound 1.40:11.15:38.95:48.50, N/P 20
[9] = IM, DMG-PEG2000:DSPC:Chol:compound 1.40:11.15:38.95:48.50, N/P 30
[10] = IV, organ not given, DMG-PEG2000:DSPC:Chol:compound 1.40:11.15:38.95:48.50, N/P 30
[11] = DMG-PEG2000:DSPC:Chol:compound 1.40:11.15:38.95:48.50, N/P 30
[12] = IV, liver, DMG-PEG2000:DSPC:Chol:compound 1.40:11.15:38.95:48.50, N/P 40
[13] = IV, lung, DMG-PEG2000:DSPC:Chol:compound 1.40:11.15:38.95:48.50, N/P 40
[14] = IV, spleen, DMG-PEG2000:DSPC:Chol:compound 1.40:11.15:38.95:48.50, N/P 40
[15] = DMG-PEG2000:DSPC:Chol:compound 1.40:11.15:38.95:48.50, N/P 40
[16] = IV, body, DMG-PEG2000:DSPC:Chol:compound 1.40:11.15:38.95:48.50, N/P 30
[17] = IV, liver, DMG-PEG2000:DSPC:Chol:compound 1.40:11.15:38.95:48.50, N/P 30
[18] = IV, lung, DMG-PEG2000:DSPC:Chol:compound 1.40:11.15:38.95:48.50, N/P 30
[19] = IV, spleen, DMG-PEG2000:DSPC:Chol:compound 1.40:11.15:38.95:48.50, N/P 30

Compound	PDI [1, 7]	Particle size (nm) [1, 7]	PDI [1, 11]	Particle size (nm) [1, 11]	IVIS (mice; [2])	IVIS (mice; [8])	IVIS (mice; [9])	also measured
CCCCCCCCCCCCOC(=O)C(O)CN(CCOCCOCCN(CC(O)C(=O)OCCCCCCCCCCCC)CC(O)C(=O)OCCCCCCCCCCCC)CC(O)C(=O)OCCCCCCCCCCCC (stereo not drawn) [Compound L0309]	0.11	180.63 nm			3.09E+06			IVIS (mice; [3]): 1.24E+06; % of organ targeting (mice; [4]): 21.49%; IVIS (mice; [4]): 5.48E+05; % of organ targeting (mice; [5]): 3.37%; IVIS (mice; [5]): 8.60E+04; % of organ targeting (mice; [6]): 75.14%; IVIS (mice; [6]): 1.91E+06
CCCCCCCCCCCCOC(=O)C(O)CN(C)CCCN(C)CCCN(C)CC(O)C(=O)OCCCCCCCCCCCC (stereo not drawn) [Compound L0310]			0.22	190.63 nm			1.53E+05	IVIS (mice; [10]): 2.77E+05
CCCCCCCCCCCCNC(=O)C(O)CN(C)CCCN(C)CCCN(C)CC(O)C(=O)NCCCCCCCCCCCC (stereo not drawn) [Compound L0311]			0.16	111.00 nm			2.23E+05	IVIS (mice; [10]): 4.57E+05
CCCCCCCCCCCCOC(=O)C(O)CN(CCOCCN(CC(O)C(=O)OCCCCCCCCCCCC)CC(O)C(=O)OCCCCCCCCCCCC)CC(O)C(=O)OCCCCCCCCCCCC (stereo not drawn) [Compound L0312]	0.12	172.73 nm			9.71E+05	5.52E+05		
CCCCCCCCCCNC(=O)C(O)CN(C)CCCN(C)CCCN(C)CC(O)C(=O)NCCCCCCCCCC (stereo not drawn) [Compound L0327]			0.18	108.57 nm			4.85E+05	IVIS (mice; [10]): 2.98E+05
CCCCCCCCCCCCNCC(O)CN(CCCNC(=O)CCN(CCCN(CCC(=O)NCCCN(CC(O)C(=O)NCCCCCCCCCCCC)CC(O)C(=O)NCCCCCCCCCCCC)CCC(=O)NCCCN(CC(O)C(=O)NCCCCCCCCCCCC)CC(O)C(=O)NCCCCCCCCCCCC)CCC(=O)NCCCN(CC(O)C(=O)NCCCCCCCCCCCC)CC(O)C(=O)NCCCCCCCCCCCC)CC(O)C(=O)NCCCCCCCCCCCC (stereo not drawn) [Compound L0328]								IVIS (mice; IM, DMG-PEG2000:DSPC:Chol:compound 1.40:11.15:38.95:48.50, N/P 40): 9.40E+05; IVIS (mice; IV, body, DMG-PEG2000:DSPC:Chol:compound 1.40:11.15:38.95:48.50, N/P 40): 3.55E+07; % of organ targeting (mice; [12]): 51.92%; IVIS (mice; [12]): 5.62E+06; % of organ targeting (mice; [13]): 1.56%; IVIS (mice; [13]): 1.69E+05; % of organ targeting (mice; [14]): 46.52%; IVIS (mice; [14]): 5.04E+06; PDI [1, 15]: 0.11; Particle size (nm) [1, 15]: 150.47 nm
CCCCCCOCOCCCCCCOC(=O)C(O)CN(CCOCCOCCN(CC(O)C(=O)OCCCCCCOCOCCCCCC)CC(O)C(=O)OCCCCCCOCOCCCCCC)CC(O)C(=O)OCCCCCCOCOCCCCCC (stereo not drawn) [Compound L0329]	0.18	158.43 nm			4.22E+06			IVIS (mice; [3]): 3.09E+06; % of organ targeting (mice; [4]): 25.67%; IVIS (mice; [4]): 5.34E+05; % of organ targeting (mice; [5]): 5.35%; IVIS (mice; [5]): 1.11E+05; % of organ targeting (mice; [6]): 68.99%; IVIS (mice; [6]): 1.44E+06
CCCCCCOCOCCCCCCOC(=O)C(O)CN(CCOCCN(CC(O)C(=O)OCCCCCCOCOCCCCCC)CC(O)C(=O)OCCCCCCOCOCCCCCC)CC(O)C(=O)OCCCCCCOCOCCCCCC (stereo not drawn) [Compound L0330]	0.10	145.77 nm			1.35E+06			IVIS (mice; [3]): 2.05E+06; % of organ targeting (mice; [4]): 29.70%; IVIS (mice; [4]): 2.90E+05; % of organ targeting (mice; [5]): 4.48%; IVIS (mice; [5]): 4.37E+04; % of organ targeting (mice; [6]): 65.82%; IVIS (mice; [6]): 6.43E+05
CCCCCCOCOCCCCCCOC(=O)C(O)CN(C)CCCN(C)CCCN(C)CC(O)C(=O)OCCCCCCOCOCCCCCC (stereo not drawn) [Compound L0331]			0.06	122.67 nm			3.39E+06	IVIS (mice; [10]): 9.27E+05
CCCCCCOC(C)OCCCCCCOC(=O)C(O)CN(CCN(C)CCN(CC(O)C(=O)OCCCCCCOC(C)OCCCCCC)CC(O)C(=O)OCCCCCCOC(C)OCCCCCC)CC(O)C(=O)OCCCCCCOC(C)OCCCCCC (stereo not drawn) [Compound L0333]			0.09	130.70 nm			1.70E+06	IVIS (mice; [16]): 6.44E+08; % of organ targeting (mice; [17]): 74.80%; IVIS (mice; [17]): 1.29E+08; % of organ targeting (mice; [18]): 4.15%; IVIS (mice; [18]): 7.15E+06; % of organ targeting (mice; [19]): 21.05%; IVIS (mice; [19]): 3.63E+07
CC/C=C\CCOCOCCCCCCOC(=O)C(O)CN(CCN(C)CCN(CC(O)C(=O)OCCCCCCOCOCC/C=C\CC)CC(O)C(=O)OCCCCCCOCOCC/C=C\CC)CC(O)C(=O)OCCCCCCOCOCC/C=C\CC (stereo not drawn) [Compound L0334]			0.06	146.13 nm			6.25E+05	IVIS (mice; [16]): 5.29E+08; % of organ targeting (mice; [17]): 57.03%; IVIS (mice; [17]): 1.01E+08; % of organ targeting (mice; [18]): 6.95%; IVIS (mice; [18]): 1.22E+07; % of organ targeting (mice; [19]): 36.03%; IVIS (mice; [19]): 6.35E+07

Further lines, with some results ahead:

PDI [1, 7]	Particle size (nm) [1, 7]	PDI [1, 11]	Particle size (nm) [1, 11]	Compound	IVIS (mice; [2])	IVIS (mice; [8])	IVIS (mice; [9])	also measured
0.18	109.93 nm			CCCCCCCCCCCCNC(=O)C(O)CN(CCOCCOCCN(CC(O)C(=O)NCCCCCCCCCCCC)CC(O)C(=O)NCCCCCCCCCCCC)CC(O)C(=O)NCCCCCCCCCCCC (stereo not drawn) [Compound L0305]	4.39E+04			IVIS (mice; [3]): 8.12E+06; % of organ targeting (mice; [4]): 35.21%; IVIS (mice; [4]): 2.14E+06; % of organ targeting (mice; [5]): 1.65%; IVIS (mice; [5]): 1.00E+05; % of organ targeting (mice; [6]): 63.14%; IVIS (mice; [6]): 3.84E+06
0.14	84.96 nm			CCCCCCCCCCCCNC(=O)C(O)CN(CCOCCN(CC(O)C(=O)NCCCCCCCCCCCC)CC(O)C(=O)NCCCCCCCCCCCC)CC(O)C(=O)NCCCCCCCCCCCC (stereo not drawn) [Compound L0306]	1.82E+06	7.90E+06		
0.25	178.57 nm			CCCCCCCCCCCCNC(=O)C(O)CN(CCCCCN(CC(O)C(=O)NCCCCCCCCCCCC)CC(O)C(=O)NCCCCCCCCCCCC)CC(O)C(=O)NCCCCCCCCCCCC (stereo not drawn) [Compound L0307]	1.43E+05	4.29E+05		
0.10	132.67 nm			CCCCCCCCCCCCNC(=O)C(O)CN(CCCCCCCN(CC(O)C(=O)NCCCCCCCCCCCC)CC(O)C(=O)NCCCCCCCCCCCC)CC(O)C(=O)NCCCCCCCCCCCC (stereo not drawn) [Compound L0308]	9.07E+05	1.99E+05		
0.12	94.88 nm			CCCCCCCCCCNC(=O)C(O)CN(CCOCCOCCN(CC(O)C(=O)NCCCCCCCCCC)CC(O)C(=O)NCCCCCCCCCC)CC(O)C(=O)NCCCCCCCCCC (stereo not drawn) [Compound L0325]	5.09E+06	1.95E+07		
0.14	103.37 nm			CCCCCCCCCCNC(=O)C(O)CN(CCOCCN(CC(O)C(=O)NCCCCCCCCCC)CC(O)C(=O)NCCCCCCCCCC)CC(O)C(=O)NCCCCCCCCCC (stereo not drawn) [Compound L0326]	6.75E+05	1.02E+06		
		0.18	150.70 nm	CCCCCCCCCCCCNCC(O)CN(CCN(CCN(CC(O)CNCCCCCCCCCCCC)CC(O)C(=O)NCCCCCCCCCCCC)CC(O)C(=O)NCCCCCCCCCCCC)CC(O)C(=O)NCCCCCCCCCCCC (stereo not drawn) [Compound L0332]			7.75E+05	IVIS (mice; [10]): 3.67E+05

Source: patent publication US12233161B1, “Lipids and lipid nanoparticle formulations” (LONGUIDE BIOPHARMA CORPORATION, priority 2024, dated 2025)
